Tests used:
SOD1^G93A mice = assay: Survival study in SOD1 G93A mice (neurological score, survival); format: in vivo, mouse; conditions: for Expected Days, Sulfasalazine: predicted from vehicle cohort if no effect
Protocol: High-copy SOD1^G93A transgenic mice were derived from the B6SJL-TgN(SOD1G93A)1Gur strain, obtained from The Jackson Laboratory (Bar Harbor, Me.) and originally produced by Gurney, e.g. Gurney et al., Science 264: 1772-1775 (1994). Animal experiments with the SOD1 model were performed at ALS Therapy Development Institute (herein “ALS-TDI”; Cambridge, Mass.). All mice were genotyped to verify copy number of the SOD1 transgene. Animal handling and study protocols were as previously described by ALS-TDI, e.g. Scott et al., Amyotroph. Lateral Scler. 9: 4-15 (2008).
Groups were balanced with respect to gender and body weight within gender. In addition, groups were age-matched and littermate-matched. […] Each cohort of was balanced between males and females.
(§1) 5 mL of 0.1 N NaOH was added and the tube gently sonicated. Approximately 140 μL of 1 N HCl was then added to bring the pH to 8.00. The resulting 20 mg/mL solution was delivered by intraperitoneal injection at 10 ml/kg. Vehicle treated mice were administered saline.
Neurological scores were assessed daily from day 50 for both hind legs. The neurological score was based on a scale of 0 to 4. Criteria used to assign each score level are from Scott et al., Amyotroph. Lateral Scler. 9: 4-15 (2008) and are described in Table 2.
The date of definitive neurological disease was the day that the mouse first scored a “2” on the Neurological Score. Upon reaching a score of Neurological Score of “4”, mice were euthanized and the date of death was recorded.
Survival after onset of definitive neurological disease is defined as the total number of days the mice lived after reaching definitive neurological disease (Neurological Score of 2) and before death (Neurological Score of 4). Survival after onset of definitive neurological disease was analyzed in two ways.
The first day that a neurological score was determined was day 50 of age; measurements were collected daily afterwards until death.
The three categories were: (1) days spent before definitive neurological disease, e.g. with a neurological score of 0 or 1; (2) days spent during definitive neurological disease, e.g. with a neurological score of 2 or 3; and (3) days at death, e.g. with a neurological score of 4. By definition, mice were only in the dead state for 1 day, as they were euthanized upon reaching a neurological score of 4; this category was included as a positive control to ensure the integrity of the data and analysis.

xCT (SLC7A11) = assay: Quantitative immunohistochemistry of xCT expression in the spinal cord of SOD1 mice; format: in vivo, mouse; conditions: SOD1 mice day 85 and day 100; 200 mg/kg IP two times per day from day 50; vs vehicle
Protocol: (§2) Two ages of mice were chosen for this analysis: day 85, when SOD1 mice show no overt sign of the ALS-like symptomology, and day 100, when SOD1 mice typically begin displaying the first signs of ALS-like symptomology, such as partial collapse of leg extension towards lateral midline (weakness) or trembling of hind legs during a tail suspension test. For the immunohistochemical studies, a total of 48 mice were divided into 6 cohorts of 8 mice each (4 females and 4 males) as shown in Table 5.
as §1
Mice were sacrificed by CO2 asphyxiation according to IACUC approved protocols. The spinal cord was extruded with cold PBS into a bath of cold PBS from the vertebral column of mice using an 18 gauge needle inserted in the sacral vertebral column to a friction fit. Upon extrusion, the spinal cord tissue was rinsed and dropped into 4% paraformaldehyde for 24 hours at room temperature (RT, approximately 25° C.). The tissue was then transferred to a 1× phosphate buffered saline (PBS) solution. Samples were then processed by TissueTek processors for paraffin embedding. […] The key parameter measured and reported is area fraction. […]

[1] = system: activated microglial cells; assay: Quantitative immunohistochemistry of microglial activation (anti-F4/80) in the spinal cord of SOD1 mice; format: in vivo, mouse; conditions: Microglia
Protocol: as §2, §1
Mice were sacrificed by CO2 asphyxiation according to IACUC approved protocols. The spinal cord was extruded with cold PBS into a bath of cold PBS from the vertebral column of mice using an 18 gauge needle inserted in the sacral vertebral column to a friction fit. Upon extrusion, the spinal cord tissue was rinsed and dropped into 4% paraformaldehyde for 24 hours at room temperature (RT, approximately 25° C.). The tissue was then transferred to a 1× phosphate buffered saline (PBS) solution. Samples were then processed by TissueTek processors for paraffin embedding. Spinal cord samples were then embedded in paraffin blocks and oriented for transverse sectioning. Spinal cord samples were sectioned at 10 microns thickness. Three representative sections were cut from lumbar, thoracic and cervical regions of the spinal cord. Samples were pretreated with Pronase for 20 minutes at RT, followed by treatment with 3% H2O2 for 12 minutes at RT. Horse serum was added to 2% and samples incubated for 20 minutes at RT. The samples were then incubated with the primary antibody (Anti-xCT; purchased from Abcam (Cambridge, Mass.); Catalog #Ab37185; diluted 1:500 in PBS) overnight at 4° C. The secondary antibody (Biotin labeled goat anti-rabbit IgG; 1:500 dilution in PBS) was then added and the reaction incubated overnight at RT. Reaction products were developed using the Vector ABC system (Vector Labs, Burlingame, Calif.) using avidin-conjugated horseradish peroxidase. xCT expression was visualized by addition of the chromogenic substrate DAB (3,3′-diaminobenzidine) for 10 minutes at RT. Each stained section was imaged at objectives: 4×, 10×, 20× and 40×. For each objective image, light parameters were optimized and kept consistent across all sections. For SLC7A11 analysis, all images that were captured at 20× were then imported into ImageJ freeware (NIH, Bethesda, Md.). A maximum entropy threshold algorithm was applied to all images in a completely blinded fashion to filter out all pixels that were not stained as DAB positive. The key parameter measured and reported is area fraction. Area fraction is the proportion of total pixels that are DAB positive in the ventral horn of the spinal cord. All statistical analyses were performed using JMP® 7.0, SAS Institute, Inc. Area fraction was compared with respect to treatment using 1-way ANOVA analysis, with a p-value of 0.05 considered significant.
The same test mice, spinal cord preparations and methods of analysis used in the neuroinflammatory study were identical to those used in the xCT quantitation study. Two neuroinflammatory cell populations were quantitated: (1) activated microglial cells using an antibody to the F4/80 antigen, and (2) activated astrocytes, using an antibody to the GFAP antigen. For each objective image, light parameters were optimized and kept consistent across all sections. Images that were captured at 20× were then imported into ImageJ freeware (NIH, Bethesda, Md.). A maximum entropy threshold algorithm was applied to all images in a completely blinded fashion to filter out all pixels that were not stained as DAB positive. 20× images were analyzed in a blinded fashion and mean area fraction occupied by stain was tabulated. […]

in vivo = conditions: SOD1, mouse, spinal cord/plasma, ip, 200 mg/kg
[2] = sulfasalazine vs vehicle, SOD1 mice, 200 mg/kg IP two times per day

O=C(O)c1cc(/N=N/c2ccc(S(=O)(=O)Nc3ccccn3)cc2)ccc1O [Sulfasalazine, 2-hydroxy-5-[(E)-2-{4-[(pyridin-2-yl)sulfamoyl]phenyl}diazen-1-yl]benzoic acid]
increase of median absolute survival (SOD1^G93A mice; SOD1 mice vs vehicle, 200 mg/kg IP two times per day, p=0.07): 3.5 days
effect on time of disease onset (SOD1^G93A mice; SOD1 mice, 200 mg/kg IP two times per day): no statistical effect
Expected Days, Sulfasalazine (SOD1^G93A mice; Total Observations): 2050 days
Observed Days Minus Expected Days (SOD1^G93A mice; before definitive disease onset (neurological score 0 or 1)): no significant difference
Observed Days Minus Expected Days (SOD1^G93A mice; death (neurological score 4)): no significant difference
Observed Days, Sulfasalazine (SOD1^G93A mice; death (neurological score 4), cohort n=27): 27 days
Expected Days, Sulfasalazine (SOD1^G93A mice; death (neurological score 4)): 27 days
Absolute Change in Mean Day of Death (SOD1^G93A mice; [2]): 3.7 days
Absolute Change in Mean Day of Definitive Neurological Disease (SOD1^G93A mice; [2]): −1.2 day
Absolute Change in Total Days of Survival after Onset of Definitive Disease (SOD1^G93A mice; [2]): 4.9 days
Percent Change in Mean Day of Death (SOD1^G93A mice; [2]): 2.9%
Percent Change in Mean Day of Definitive Neurological Disease (SOD1^G93A mice; [2]): −1.0%
Percent Change in Total Days of Survival after Onset of Definitive Disease (increased lifespan after onset) (SOD1^G93A mice; sulfasalazine vs vehicle, SOD1 mice, 200 mg/kg IP two times per day, 200 mg/kg): 39%
Expected Days, Sulfasalazine (SOD1^G93A mice; total days before definitive disease onset (neurological score 0 or 1), normalized for number of animals): 1722 days
Expected Days, Sulfasalazine (SOD1^G93A mice; total days in definitive neurological disease (neurological score 2 or 3)): 301 days
effect on xCT expression (area fraction, ventral horn of spinal cord) (xCT (SLC7A11)): did not have a significant effect
Decreased activation in sulfasalazine treated SOD1 vs. vehicle treated SOD1 mice ([1]; Cervical, Day 85, p < 0.01): significantly decreased
Decreased activation in sulfasalazine treated SOD1 vs. vehicle treated SOD1 mice ([1]; Cervical, Day 85, p < 0.01, listed as sulfasalazine): Strong decrease
Decreased activation in sulfasalazine treated SOD1 vs. vehicle treated SOD1 mice ([1]; Cervical, Day 100): trend towards decreased
Decreased activation in sulfasalazine treated SOD1 vs. vehicle treated SOD1 mice ([1]; Cervical, Day 100, listed as sulfasalazine): Trend
Decreased activation in sulfasalazine treated SOD1 vs. vehicle treated SOD1 mice ([1]; Combined (cervical, thoracic, lumbar), Day 85): Trend
Decreased activation in sulfasalazine treated SOD1 vs. vehicle treated SOD1 mice ([1]; Combined (cervical, thoracic, lumbar), Day 100): No decrease
Decreased activation in sulfasalazine treated SOD1 vs. vehicle treated SOD1 mice ([1]; Lumbar, Day 85): reduced microglial activation in the lumbar region in SOD1 mice, although this effect did not reach statistical significance
Decreased activation in sulfasalazine treated SOD1 vs. vehicle treated SOD1 mice ([1]; Lumbar, Day 85, listed as sulfasalazine): Trend
Decreased activation in sulfasalazine treated SOD1 vs. vehicle treated SOD1 mice ([1]; Lumbar, Day 100): did not affect
Decreased activation in sulfasalazine treated SOD1 vs. vehicle treated SOD1 mice ([1]; Lumbar, Day 100, listed as sulfasalazine): No decrease
Decreased activation in sulfasalazine treated SOD1 vs. vehicle treated SOD1 mice ([1]; Thoracic, Day 85): No decrease
Decreased activation in sulfasalazine treated SOD1 vs. vehicle treated SOD1 mice ([1]; Thoracic, Day 100): No decrease
Kp at 15 min (in vivo): 0.16
